From patent publication EP1075256B1, “ARYLHYDROCARBON RECEPTOR LIGAND ANTAGONISTS” (priority 1998, dated 1999)

What was measured:
[1] = test system: promoteur de la séquence répétée (LTR) de VIH-1; experiment: HIV-1 LTR promoter CAT construct (-452/+77) transfected in T-47D cells; assay type: cell-based; conditions: dioxine 10^-9 M
From the text: On a transfecté les cellules T-47D avec une construction CAT contenant ce promoteur (-452/+77).

[2] = test system: éléments de réponse à la progestérone (PRE); experiment: Transient CAT reporter under progesterone response element (PRE) in T-47D cells; assay type: cell-based
From the text: (§1) On a transfecté de façon transitoire les cellules T-47D avec différentes constructions CAT sous contrôle de l'élément de réponse à l'estradiol (ERE) du gène de la vitellogénine ou celui, plus faible, du gène du récepteur de la progestérone, ainsi que des éléments de réponse à la progestérone (PRE) et aux androgènes (ARE) du virus murin MMTV et d'un élément de réponse à la vitamine D (VDRE) synthétique.

[3] = test system: élément de réponse à l'estradiol (ERE) du gène de la vitellogénine; experiment: Transient CAT reporter under estradiol response element (ERE) in T-47D cells; assay type: cell-based
From the text: as §1

[4] = test system: élément de réponse à la dioxine; experiment: CAT reporter gene under control of a dioxin response element (DRE), stably transfected T-47D cells; assay type: cell-based; conditions: figure 1A, 10^-6 M de Resvératrol
From the text: Les inventeurs ont entrepris d'identifier de nouveaux ligands du récepteur AhR. Pour ce faire, ils ont transfecté de façon stable une lignée de cellules de cancer du sein, T-47D, avec un gène rapporteur (la trans-acétylase du chloramphénicol, ou CAT) placé sous le contrôle d'un élément de réponse à la dioxine ou DRE. La lignée T-47D est connue pour contenir un taux élevé de récepteur AhR (170 femtomoles/mg protéines).
On transfecte de manière stable la lignée T-47D de cellules de cancer du sein avec un gène rapporteur, la trans-acétylase du chloramphénicol, CAT en abrégé, placé sous le contrôle d'un élément de réponse à la dioxine.
On constate que l'inhibition observée est dose-dépendante.

[5] = test system: élément de réponse à la vitamine D (VDRE); experiment: Transient CAT reporter under vitamin D response element (VDRE) in T-47D cells; assay type: cell-based
From the text: as §1

CYP1A1 = experiment: Induction of Cyp1A1 protein by dioxin in T-47D cells (Western blot); assay type: cell-based; conditions: for effets agonistes / antagonistes: 10^-5M
Method: Les cellules sont collectées et lavées dans le PBS, puis lysées par fusion-congélation répétée en conditions isotoniques. 75 µg de protéines sont analysées par électrophorèse en gel de polyacrylamide en conditions dénaturantes. Le gel est transféré sur une membrane de nylon. La membrane est saturée avec 5 % de lait écrémé et incubée avec un anticorps polyclonal de lapin (Daiichi Pure Chemicals Co, Japan) contre Cyp1A1. Les immuncomplexes sont détectés par chimioluminescence avec le kit Renaissance (DuPont). La figure 2 correspond à la photo du Western blot. La flèche montre la bande spécifique de Cyp1A1, les astérisques signalent des bandes non-spécifiques.

[6] = test system: NAD(P)H quinone réductase; experiment: NAD(P)H quinone reductase (NQOR) activity in T-47D cells; assay type: cell-based; conditions: 10^-6 M, dioxine 10^-9 M, 72 h
From the text: L'activité NQOR correspondante exprimée en nanomoles de cytochrome c réduit, par mg de protéines, par min, est donnée sur la figure 5.

récepteur AhR = biological target: T1, récepteur AhR (Oryctolagus cuniculus, UniProt O02747); experiment: Competition with tritiated dioxin for binding to the AhR receptor in rabbit liver cytosol; set-up: species or system lapin; conditions: for Kd: displacement of labelled dioxin, read-out: Kd apparent (converted)
T1 construct: On a utilisé un cytosol de foie de lapin pour ces études de compétition; from tissue; host or cells: rabbit liver cytosol
T1 sequence (O02747 1-847): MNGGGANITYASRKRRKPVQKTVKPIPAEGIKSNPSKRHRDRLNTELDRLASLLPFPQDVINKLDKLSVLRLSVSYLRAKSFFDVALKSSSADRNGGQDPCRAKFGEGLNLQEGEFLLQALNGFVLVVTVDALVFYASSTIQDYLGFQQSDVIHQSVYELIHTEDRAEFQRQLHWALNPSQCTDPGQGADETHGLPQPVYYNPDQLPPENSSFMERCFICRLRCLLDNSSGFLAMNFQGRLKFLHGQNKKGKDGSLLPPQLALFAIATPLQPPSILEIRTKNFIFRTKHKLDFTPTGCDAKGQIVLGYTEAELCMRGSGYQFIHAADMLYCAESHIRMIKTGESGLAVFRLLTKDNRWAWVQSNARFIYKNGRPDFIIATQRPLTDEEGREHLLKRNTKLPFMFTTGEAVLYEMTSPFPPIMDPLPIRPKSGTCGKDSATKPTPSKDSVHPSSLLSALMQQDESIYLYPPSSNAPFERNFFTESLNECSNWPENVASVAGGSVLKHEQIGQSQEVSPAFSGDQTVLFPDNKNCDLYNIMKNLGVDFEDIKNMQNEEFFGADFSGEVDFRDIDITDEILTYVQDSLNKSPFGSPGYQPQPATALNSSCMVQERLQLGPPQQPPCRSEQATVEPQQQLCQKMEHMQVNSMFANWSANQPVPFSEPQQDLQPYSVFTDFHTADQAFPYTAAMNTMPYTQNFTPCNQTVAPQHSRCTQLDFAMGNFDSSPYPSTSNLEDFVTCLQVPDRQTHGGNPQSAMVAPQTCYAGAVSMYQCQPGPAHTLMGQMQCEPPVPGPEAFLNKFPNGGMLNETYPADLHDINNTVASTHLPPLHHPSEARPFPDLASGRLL

cyp 1A1 = experiment: In vivo induction of cyp 1A1 in rats by BaP/DMBA (immunoblot of lung and kidney); set-up: species or system rats Sprague-Dawley; conditions: equal concentration of substances (1 mg/kg BaP/DMBA plus 1 mg/kg resvératrol)
Method: Des rats Sprague-Dawley femelle ont été traités par une combinaison de Benzol [a]pyrène et de DMBA (diméthylbenzanthracène), deux ligands AhR présents dans la fumée de cigarette. Des expériences préliminaires ont montré que cyp 1A1 était induit à partir de 1 mg/kg des deux ligands administrés ensemble. […] Les animaux ont été sacrifiés et les organes prélevés. Des extraits cellulaires totaux ont été préparés et analysés par immunoblot pour détecter l'expression de cyp 1A1 dans ces tissus.

[7] = test system: éléments de réponse aux androgènes (ARE); experiment: Transient CAT reporter under androgen response element (ARE) in T-47D cells; assay type: cell-based
From the text: as §1

Structure (SMILES)	suppression de l'induction du promoteur de VIH par la dioxine ([1]; Resvératrol 10^-6 M)	effet sur PRE [2]	effet estrogénique sur l'ERE, fraction of the effect of estradiol ([3]; T-47D, CAT)	effet estrogénique, fraction of the effect of 10^-10 M estradiol ([3]; from 10^-5 M Resvératrol)	effet sur l'induction de CAT par TCDD [4]	effet sur VDRE [5]	effets agonistes / antagonistes (CYP1A1)	inhibition at 1 µM (CYP1A1; Homo sapiens, T47D, 48 h, read-out: inhibition de l'induction de la protéine CYP1A1) [%]	excès nécessaire pour observer l'inhibition ex vivo (CYP1A1; ex vivo) [fois]	effet inhibiteur compared with α-naphthoflavone (CYP1A1; induction of CYP1A1 by TCDD, T-47D)	répression de l'induction indirecte des enzymes de phase II (NAD(P)H quinone réductase) provoquée par la dioxine [6]	affinité compared with indole-3-carbinol (récepteur AhR)	suppression de l'induction de cyp 1A1 in vivo (cyp 1A1)	effet sur ARE [7]	Kd (récepteur AhR) [nM]	fold induction at 0.001 µM ([1]; Homo sapiens, T47D, T-47D, read-out: induction du promoteur de VIH (facteur))
Oc1ccc(/C=C/c2cc(O)cc(O)c2)cc1 [Resvératrol, trans-resvératrol]	totalement supprimée	aucun effet	1/500.000	1/5	effet inhibiteur	aucun effet	pur antagoniste	~60	5000	légérement inférieur	ne répriment l'induction indirecte	affinité plus forte	totalement supprimée	aucun effet	–	–
O=c1cc(-c2ccccc2)oc2c1ccc1ccccc12 [α-NF, alpha-7,8-benzoflavone, reference compound]	–	–	–	–	–	–	effets agonistes autant qu'antagonistes	–	–	–	ne répriment l'induction indirecte	–	–	–	3	–
Clc1cc2c(cc1Cl)Oc1cc(Cl)c(Cl)cc1O2 [TCDD, 2,3,7,8-tétrachlorodibenzo (p)dioxine, reference compound]	–	–	–	–	–	–	–	–	–	–	–	–	–	–	3	3
